{"source": "paper PMC6199744", "about": "“Development of Chemical Proteomics for the Folateome and Analysis of the Kinetoplastid Folateome” (ACS Infectious Diseases, 2018)", "tested_on": "L. major lysate proteins", "assay": "Multitargeted bead mixture chemoproteomics, single concentration competition, proteome-wide", "assay_type": "binding", "conditions": "for fold change: vehicle control = 1", "note": "Where “and” joins values, the source holds several entries; their conditions need not be identical. Identical values can stand only once. Like-named read-outs stand apart in the source and are kept apart here."}
{"smiles": "NCCOCCOCC(=O)Nc1nc2ncc(CNc3ccc(C(=O)NC(CCC(=O)O)C(=O)O)cc3)nc2c(=O)[nH]1", "note": "(stereo not drawn) [compound 6]", "values": [{"measurement": "fold change vs vehicle control", "result": "1.04 and 1.02"}, {"measurement": "protein inhibition, any captured protein (Figure 8)", "setting": "bead mixture, L. major lysate", "result": "no protein inhibition >30%"}, {"measurement": "fold change vs vehicle control", "setting": "protein CLI00016468.1 KINETOPLASTID MEMBRANE PROTEIN-11", "result": 0.79}, {"measurement": "fold change vs vehicle control", "setting": "protein LINJ.03.0240 RIBOSOMAL PROTEIN L38, PUTATIVE", "result": 1.35}, {"measurement": "fold change vs vehicle control", "setting": "protein LINJ.11.0780 40S RIBOSOMAL PROTEIN S21, PUTATIVE", "result": 1.03}, {"measurement": "fold change", "setting": "protein LINJ.11.0960 40S RIBOSOMAL PROTEIN S5", "result": 1.03}, {"measurement": "fold change vs vehicle control", "setting": "protein LINJ.13.0990 PROTEASOME REGULATORY ATPASE SUBUNIT 2, PUTATIVE", "result": 0.92}, {"measurement": "fold change vs vehicle control", "setting": "protein LINJ.15.0330 RIBONUCLEOPROTEIN P18, MITOCHONDRIAL PRECURSOR, PUTATIVE", "result": 0.98}, {"measurement": "fold change", "setting": "protein LINJ.19.0090 FIBRILLARIN, PUTATIVE", "result": 0.87}, {"measurement": "fold change relative to vehicle control", "setting": "protein LINJ.23.0860, 3-KETOACYL-COA THIOLASE, PUTATIVE", "result": 1.25}, {"measurement": "fold change relative to vehicle control", "setting": "protein LINJ.24.2300, 60S RIBOSOMAL PROTEIN L12, PUTATIVE", "result": 1}, {"measurement": "fold change vs vehicle control", "setting": "protein LINJ.25.2230 SUCCINYL-COA […] SUBUNIT, PUTATIVE", "result": 1.06}, {"measurement": "fold change vs vehicle control", "setting": "protein LINJ.26.1630 40S RIBOSOMAL PROTEIN S33, PUTATIVE", "result": 1.13}, {"measurement": "fold change vs vehicle control", "setting": "protein LINJ.28.1100 RIBOSOMAL PROTEIN S20, PUTATIVE", "result": 0.92}, {"measurement": "fold change relative to vehicle control", "setting": "protein LINJ.28.1940, REPLICATION FACTOR A, 51KDA SUBUNIT, PUTATIVE", "result": 0.96}, {"measurement": "fold change", "setting": "protein LINJ.28.2280 DYNEIN LIGHT CHAIN LC6, FLAGELLAR OUTER ARM, PUTATIVE", "result": 0.7}, {"measurement": "fold change", "setting": "protein LINJ.28.2870 PROTEIN PHOSPHATASE 4 CATALYTIC SUBUNIT, PUTATIVE", "result": 0.82}, {"measurement": "fold change relative to vehicle control", "setting": "protein LINJ.31.1600, […] OXIDASE VIII (COX VIII), PUTATIVE", "result": 0.8}, {"measurement": "fold change relative to vehicle control", "setting": "protein LINJ.33.1730, CYCLOPHILIN 4, PUTATIVE", "result": 1.42}, {"measurement": "fold change vs vehicle control", "setting": "protein LINJ.34.0670 […]-ATP-ASE SUBUNIT 11, PUTATIVE,19S […]", "result": 1.08}, {"measurement": "fold change vs vehicle control", "setting": "protein LINJ.36.0780 PROTEIN KINASE, PUTATIVE,MITOGEN-ACTIVATED PROTEIN KINASE, PUTATIVE", "result": 1.16}, {"measurement": "fold change relative to vehicle control", "setting": "protein LINJ.36.3960, BASIC TRA[…] 3A, PUTATIVE", "result": 1.37}, {"measurement": "fold change vs vehicle control", "setting": "protein LINJ.36.4070 EUKARYOTIC TRANSLATION INITIATION FACTOR 3 SUBUNIT, PUTATIVE", "result": 0.98}, {"measurement": "fold change relative to vehicle control", "setting": "protein LINJ.36.4080, HY[…], CONSERVED", "result": 1.12}, {"measurement": "fold change", "setting": "protein LINJ.36.4180 HS1VU COMPLEX P[…]-LIKE", "result": 1.02}, {"measurement": "fold change vs vehicle control", "setting": "protein LINJ.[…] LONG-CHAIN-FATTY-ACID-COA LIGASE, PUTATIVE", "result": 0.98}, {"measurement": "fold change", "setting": "protein LMJF.01.0570 TRIC[…], PUTATIVE", "result": 0.96}, {"measurement": "fold change relative to vehicle control", "setting": "protein LMJF.03.0200, DELTA-1-PYRROLINE-5-CARBOXYLATE DEHYDROGENASE, PUTATIVE", "result": 1.14}, {"measurement": "fold change", "setting": "protein LMJF.03.0230 LONG CHAIN FATTY ACYL COA SYNTHETASE, PUTATIVE", "result": 1}, {"measurement": "fold change", "setting": "protein LMJF.03.0980 ELONGATION INITIATION FACTOR 2 ALPHA SUBUNIT, PUTATIVE", "result": 0.99}, {"measurement": "fold change vs vehicle control", "setting": "protein LMJF.04.0630 HY[…], CONSERVED", "result": 1.04}, {"measurement": "fold change vs vehicle control", "setting": "protein LMJF.04.1230 actin", "result": 1.07}, {"measurement": "fold change", "setting": "protein LMJF.05.0100 PHOSPHOPROTEIN PHOSPHATASE, PUTATIVE", "result": 0.99}, {"measurement": "fold change", "setting": "protein LMJF.05.0280 PROTEIN TYROSINE PHOSPHATASE, PUTATIVE", "result": 0.92}, {"measurement": "fold change", "setting": "protein LMJF.05.0510 ATPASE ALPHA SUBUNIT", "result": 1.08}, {"measurement": "fold change", "setting": "protein LMJF.05.1040 STOMATIN-LIKE PROTEIN", "result": 0.97}, {"measurement": "fold change", "setting": "protein LMJF.06.0650 LANOSTEROL SYNTHASE, PUTATIVE", "result": 0.97}, {"measurement": "fold change vs vehicle control", "setting": "protein LMJF.07.0700 TOPOISOMERASE-RELATED FUNCTION PROTEIN-LIKE PROTEIN", "result": 0.83}, {"measurement": "fold change", "setting": "protein LMJF.07.1000 RNA BINDING PROTEIN-LIKE PROTEIN", "result": 0.9}, {"measurement": "fold change relative to vehicle control", "setting": "protein LMJF.07.1140, PEPTIDE […] REDUCTASE-LIKE", "result": 1.14}, {"measurement": "fold change", "setting": "protein LMJF.08.0510 RIBOSE-PHOSPHATE PYROPHOSPHOKINASE, PUTATIVE", "result": 0.97}, {"measurement": "fold change vs vehicle control", "setting": "protein LMJF.08.0550 T[…]-LIKE PROTEIN", "result": 1.05}, {"measurement": "fold change relative to vehicle control", "setting": "protein LMJF.08.1030, cathepsin L-like protease", "result": 0.94}, {"measurement": "fold change vs vehicle control", "setting": "protein LMJF.08.1100 HY[…], CONSERVED", "result": 1.01}, {"measurement": "fold change vs vehicle control", "setting": "protein LMJF.09.1010 HYPOTHETICAL PROTEIN, CONSERVED", "result": 0.88}, {"measurement": "fold change relative to vehicle control", "setting": "protein LMJF.09.1120, MIT[…] BINDING PROTEIN 2,MRP2, GBP25", "result": 1.13}, {"measurement": "fold change vs vehicle control", "setting": "protein LMJF.09.1260 HYPOTHETICAL PROTEIN, CONSERVED", "result": 0.98}, {"measurement": "fold change", "setting": "protein LMJF.10.0210 NUCLEOLAR PROTEIN, PUTATIVE", "result": 1.03}, {"measurement": "fold change vs vehicle control", "setting": "protein LMJF.10.0310 PROTEIN TRANSPORT PROTEIN SEC23, PUTATIVE", "result": 0.91}, {"measurement": "fold change", "setting": "protein LMJF.11.0590 3-[…]-COA C[…] SUBUNIT, PUTATIVE", "result": 0.92}, {"measurement": "fold change relative to vehicle control", "setting": "protein LMJF.11.0630, AMINOPEPTIDASE, PUTATIVE,METALLO-PEPTIDASE, CLAN MF, FAMILY M17", "result": 1.13}, {"measurement": "fold change vs vehicle control", "setting": "protein LMJF.11.1050 PRETRA[…], ALPHA SUBUNIT, PUTATIVE,SEC61-LIKE (PRETRA[…]) PROTEIN, PUTATIVE", "result": 1.04}, {"measurement": "fold change", "setting": "protein LMJF.11.1160 PROTEIN TRANSPORT PROTEIN SEC31, PUTATIVE", "result": 0.87}, {"measurement": "fold change", "setting": "protein LMJF.12.0030 PROTEASOME BETA-1 SUBUNIT, PUTATIVE", "result": 0.9}, {"measurement": "fold change vs vehicle control", "setting": "protein LMJF.12.0210 […] […]1L8 3, PUTATIVE", "result": 0.98}, {"measurement": "fold change relative to vehicle control", "setting": "protein LMJF.12.0530, GLUCOSE-6-PHOSPHATE ISOMERASE", "result": 1.41}, {"measurement": "fold change", "setting": "protein LMJF.12.0630 ALANINE AMINOTRANSFERASE", "result": 0.95}, {"measurement": "fold change vs vehicle control", "setting": "protein LMJF.13.1230 40S RIBOSOMAL PROTEIN S4, PUTATIVE", "result": 1.22}, {"measurement": "fold change vs vehicle control", "setting": "protein LMJF.14.0310 PROTEASOME ALPHA 3 SUBUNIT, PUTATIVE", "result": 0.96}, {"measurement": "fold change", "setting": "protein LMJF.14.0660 FATTY ACID ELONGASE, PUTATIVE", "result": 1.14}, {"measurement": "fold change", "setting": "protein LMJF.14.0670 FATTY ACID ELONGASE, PUTATIVE", "result": 0.98}, {"measurement": "fold change vs vehicle control", "setting": "protein LMJF.14.0680 FATTY ACID ELONGASE, PUTATIVE", "result": 1.13}, {"measurement": "fold change", "setting": "protein LMJF.14.0990 ADP/ATP MIT[…]-LIKE PROTEIN", "result": 1.32}, {"measurement": "fold change vs vehicle control", "setting": "protein LMJF.14.1160 ENOLASE", "result": 1.1}, {"measurement": "fold change", "setting": "protein LMJF.14.1440 HYPOTHETICAL PROTEIN, CONSERVED (cytoskeleton associated protein, putative)", "result": 0.82}, {"measurement": "fold change", "setting": "protein LMJF.15.0040 HYPOTHETICAL PROTEIN, CONSERVED (Possible lysine decarboxylase, putative)", "result": 0.84}]}
